In the experiment the test system is mouse retinal angiogenesis. The experiment can be described thus: Mouse model for inducing retinal angiogenesis using oxygen partial pressure (75% oxygen, then normal 20%); FITC-dextran fluorescence microscopy of retina. Format: in vivo. Conditions: intraperitoneally; for retinal blood vessels observed (Example 2): FIG. 4; for retinal blood vessels observed (Example 2) / retinal blood vessels observed (Example 3): dose not given; for effect compared between polypeptides SEQ ID NOs: 1, 2 and SEQ ID NO: 3 (Example 2): FIG. 4 versus FIG. 2; for retinal blood vessels observed (Example 3): FIG. 2 and FIG. 5. As for the experimental part:
For this purpose, a mouse was kept for 5 days under a high oxygen environment with a constant 75% oxygen partial pressure 7 days after the mouse was born in an apparatus that can adjust an oxygen partial pressure, and then kept under a 20% oxygen pressure which is a normal oxygen partial pressure. […] In order to observe the blood vessels, 50 mg of FITC-dextran having a molecular weight of 2×10^6 was dissolved in 1 ml of saline, and the resultant solution was injected through the left ventricle. The mouse eyeball was extracted immediately after the injection. The extracted eyeball was washed with saline, fixed with 1% paraformaldehyde for 4 to 24 hours, and then a lens was removed from the eyeball. Then, the resultant mouse retina was evenly spread over a glass slide, and the glass slide was sealed with glycerine-gelatin, and then observed using a fluorescence microscope. The degree on abnormal vessel, avascular lesion and vascular leakage caused by the retinopathy was digitalized and the retinopathy score was compared.

Entries after “also recorded” stand apart in the source; their conditions may differ. Non-standard residues stand in square brackets, D forms with d. No end group written: not given here.

In the case of “Cyclo(-Arg-Gly-Asp-D-Phe-Val) (cyclo(RGD[dF]V)) [SEQ ID NO: 1]”, the “retinal blood vessels observed (Example 2)” value was “normal angiogenesis is induced but abnormal angiogenesis is suppressed; also recorded: the abnormal angiogenesis was decreased and the normal blood vessels were observed”; the “effect compared between polypeptides SEQ ID NOs: 1, 2 and SEQ ID NO: 3 (Example 2)” value is recorded as “the same advantageous effect”.

As to “DEGKRGDGDACEGDS [SEQ ID NO: 6, smaller peptide than the TP508; chemical synthesis]”, the “effect compared with TP508 (SEQ ID NO: 3) (Example 3)” value is “had a similar effect as the TP508”; the “retinal blood vessels observed (Example 3)” value was “normal angiogenesis is induced but abnormal angiogenesis is suppressed and the vascular leakage is decreased; also recorded: the abnormal angiogenesis, avascular lesion and vascular leakage were decreased and the normal blood vessels were observed”.

On to “H-Gly-Phe-Gly-Arg-Gly-Asp-Ser-Pro-Cys-Ala-OH (H-GFGRGDSPCA-OH) [SEQ ID NO: 2]”, for which the “retinal blood vessels observed (Example 2)” value is “normal angiogenesis is induced but abnormal angiogenesis is suppressed; also recorded: the abnormal angiogenesis was decreased and the normal blood vessels were observed”; the “effect compared between polypeptides SEQ ID NOs: 1, 2 and SEQ ID NO: 3 (Example 2)” value is “the same advantageous effect”.

On to Thrombin [SEQ ID NO: 4], for which the “effect compared with TP508 (SEQ ID NO: 3) (Example 3)” value was “had a similar effect as the TP508”; the “retinal blood vessels observed (Example 3)” value is “normal angiogenesis is induced but abnormal angiogenesis is suppressed and the vascular leakage is decreased; also recorded: the abnormal angiogenesis, avascular lesion and vascular leakage were decreased and the normal blood vessels were observed”.
